In experiment [1] the test system is Phosphorylation of ERK1/2 in AsPC-1 cells. Description: Phospho-ERK1/2 MSD Assay (AsPC-1 cells). The settings on record: Homo sapiens, ASPC1, 2 h, 2 hours treatment, read-out: p-ERK (AsPC-1 cells) IC50. The class given is cell-based. The essentials:
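Read-out: MSD electrochemiluminescent detection of phosphorylated ERK1/2 in whole-cell lysates, fitted to a 4-parameter logistic curve for IC50. Prior to lysis, AsPC-1 cells (25,000 per well) received a 2 h compound dose-response at 37 °C.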

Experiment [2] has as its target GDP-bound KRAS protein (aa 1-169), containing both G12D and C118A amino acid substitutions (Homo sapiens, UniProt P01116, C118A/G12D). Description: KRAS G12D Coupled Nucleotide Exchange Assay. The class given is biochemical. The settings on record: 2 h compound pre-incubation. How it is done: Following compound pre-incubation, purified SOS protein (aa 564-1049) and GTP (Roche 10106399001) were added to the assay wells and incubated for an additional 30 min. […] The assay plates were then read on a PerkinElmer EnVision Multilabel Reader, using AlphaScreen® technology, and data were analyzed using a 4-parameter logistic model to calculate IC50 values.

Experiment [3] deals with His-tagged KRAS G12D protein (Homo sapiens, UniProt P01116, G12D). Description: KRAS G12D TR-FRET Assay. It is filed as binding.
Experiment [4] concerns Phosphorylation of ERK1/2 in A-427 cells. Description: Phospho-ERK1/2 MSD Assay (A-427 cells). It is filed as cell-based. The conditions noted are these: Homo sapiens, A-427, 2 h, 2 h treatment, read-out: p-ERK (A427 cells) IC50. The essentials: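 ERK1/2 phosphorylation measured by Meso Scale whole-cell lysate assay after A-427 cells were exposed to a titration of compound for 2 h at 37 °C.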

His-tagged KRAS G12D protein, sequence (P01116 1-188 isoform P01116-2 G12D): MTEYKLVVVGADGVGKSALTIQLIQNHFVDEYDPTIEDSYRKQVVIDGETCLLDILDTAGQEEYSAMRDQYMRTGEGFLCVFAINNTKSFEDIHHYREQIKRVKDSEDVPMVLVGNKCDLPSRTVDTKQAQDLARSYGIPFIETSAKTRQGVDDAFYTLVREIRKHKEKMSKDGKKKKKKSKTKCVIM
GDP-bound KRAS protein (aa 1-169), containing both G12D and C118A amino acid substitutions, sequence (P01116 1-169 isoform P01116-2 G12D/C118A): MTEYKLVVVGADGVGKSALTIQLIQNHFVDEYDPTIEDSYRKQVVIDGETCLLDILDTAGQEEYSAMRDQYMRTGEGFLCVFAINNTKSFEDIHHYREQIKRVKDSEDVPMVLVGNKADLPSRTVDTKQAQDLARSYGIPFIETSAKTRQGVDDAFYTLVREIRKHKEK

Usually IC50 stands for the concentration at which inhibition is half-maximal. Take `C#Cc1c(F)ccc2cc(O)cc(-c3c(F)cc4c(N5C[C@@H]6CC[C@H]5CN6)nc(OC[C@@]56CCCN5C[C@H](F)C6)nc4c3F)c12` [Example 188, 4-(4-((15,4S)-2,5-diazabicyclo[2.2.2]octan-2-yl)-6,8-difluoro-2-(((2R,7aS)-2-fluorotetrahydro-1H-pyrrolizin-7a(5H)-yl)methoxy)quinazolin-7-yl)-5-ethynyl-6-fluoronaphthalen-2-ol]: the IC50 in experiment [1] turned out to be 0.016 µM; in experiment [3] it was 0.002 µM; in experiment [4], 0.002 µM. The “Avg 2 h Coupled Exchange IC50” value in experiment [2] is 0.002 µM.

As for `C#Cc1c(F)ccc2cc(O)cc(-c3c(F)cc4c(N5C[C@H]6CC[C@@H](C5)N6)nc(OC[C@@]56CCCN5C[C@H](F)C6)nc4c3F)c12` [Example 189, 4-(4-((1R,5S)-3,8-diazabicyclo[3.2.1]octan-3-yl)-6,8-difluoro-2-(((2R,7aS)-2-fluorotetrahydro-1H-pyrrolizin-7a(5H)-yl)methoxy)quinazolin-7-yl)-5-ethynyl-6-fluoronaphthalen-2-ol], the IC50 in experiment [1] amounted to 0.002 µM; in experiment [3] it was 0.004 µM; in experiment [4], 0.001 µM. The “Avg 2 h Coupled Exchange IC50” value in experiment [2] stood at 0.003 µM.

Consider `C#Cc1cccc2cc(O)cc(-c3c(F)cc4c(N5C[C@H]6CC[C@@H](C5)N6)nc(OC[C@@]56CCCN5C[C@H](F)C6)nc4c3F)c12` [Example 190, 4-(4-((1R,5S)-3,8-diazabicyclo[3.2.1]octan-3-yl)-6,8-difluoro-2-(((2R,7aS)-2-fluorotetrahydro-1H-pyrrolizin-7a(5H)-yl)methoxy)quinazolin-7-yl)-5-ethynylnaphthalen-2-ol], for which the half-inhibitory concentration (IC50) in experiment [1] came out at 0.004 µM; in experiment [3] it was 0.004 µM; in experiment [4] it was 0.001 µM. Also, the “Avg 2 h Coupled Exchange IC50” value in experiment [2] amounted to 0.005 µM.

As to `C#Cc1cccc2cc(O)cc(-c3ccc4c(N5C[C@H]6CC[C@@H](C5)N6)nc(OC[C@@]56CCCN5C[C@H](F)C6)nc4c3C)c12` [Example 191, 4-(4-((1R,5S)-3,8-diazabicyclo[3.2.1]octan-3-yl)-2-(((2R,7aS)-2-fluorotetrahydro-1H-pyrrolizin-7a(5H)-yl)methoxy)-8-methylquinazolin-7-yl)-5-ethynylnaphthalen-2-ol], the figures for the IC50 in experiment [1], in experiment [3] and in experiment [4] were 0.038 µM, 0.003 µM and 0.004 µM, respectively. In addition, the “Avg 2 h Coupled Exchange IC50” value in experiment [2] was determined as 0.004 µM.

`Cc1c(Cl)cc2[nH]ncc2c1-c1ccc2c(N3C[C@H]4CC[C@@H](C3)N4)nc(OC[C@@]34CCCN3C[C@H](F)C4)nc2c1F` [Example 192, 4-((1R,5S)-3,8-Diazabicyclo[3.2.1]octan-3-yl)-7-(6-chloro-5-methyl-1H-indazol-4-yl)-8-fluoro-2-(((2R,7aS)-2-fluorotetrahydro-1H-pyrrolizin-7a(5H)-yl)methoxy)quinazoline]: the IC50 is 0.532 µM in experiment [1], 0.004 µM in experiment [3] and 0.15 µM in experiment [4]. In experiment [2], the “Avg 2 h Coupled Exchange IC50” value amounted to 0.002 µM.

As for `Fc1c(-c2c(C3CC3)ccc3[nH]ncc23)ccc2c(N3C[C@H]4CC[C@@H](C3)N4)nc(OC[C@@]34CCCN3C[C@H](F)C4)nc12` [Example 193, 4-((1R,5S)-3,8-diazabicyclo[3.2.1]octan-3-yl)-7-(5-cyclopropyl-1H-indazol-4-yl)-8-fluoro-2-(((2R,7aS)-2-fluorotetrahydro-1H-pyrrolizin-7a(5H)-yl)methoxy) quinazoline], the IC50 is 1.08 µM in experiment [1], 0.015 µM in experiment [3] and 0.482 µM in experiment [4]. Also, the “Avg 2 h Coupled Exchange IC50” value in experiment [2] was 0.01 µM.

Regarding `Fc1c(-c2c(C(F)(F)F)ccc3[nH]ncc23)ccc2c(N3C[C@H]4CC[C@@H](C3)N4)nc(OC[C@@]34CCCN3C[C@H](F)C4)nc12` [Example 194, 4-((1R,5S)-3,8-diazabicyclo[3.2.1]octan-3-yl)-8-fluoro-2-(((2R,7aS)-2-fluorotetrahydro-1H-pyrrolizin-7a(5H)-yl)methoxy)-7-(5-(trifluoromethyl)-1H-indazol-4-yl)quinazoline], the values for the half-inhibitory concentration (IC50) in experiment [1], in experiment [3] and in experiment [4] were 0.815 µM, 0.014 µM and 0.843 µM, respectively. Besides, in experiment [2], the “Avg 2 h Coupled Exchange IC50” value was 0.01 µM.

For the compound `Cc1ccc2[nH]ncc2c1-c1ccc2c(N3C[C@H]4CC[C@@H](C3)N4)nc(OC[C@@]34CCCN3C[C@H](F)C4)nc2c1F` [Example 195, 4-((1R,5S)-3,8-diazabicyclo[3.2.1]octan-3-yl)-8-fluoro-2-(((2R,7aS)-2-fluorotetrahydro-1H-pyrrolizin-7a(5H)-yl)methoxy)-7-(5-methyl-1H-indazol-4-yl)quinazoline], the IC50 in experiment [1] is 2.67 µM; in experiment [3], 0.04 µM; in experiment [4], 2.38 µM. Besides, in experiment [2], the “Avg 2 h Coupled Exchange IC50” value stood at 0.017 µM.

`Fc1c(-c2c(Cl)ccc3[nH]ncc23)ccc2c(N3C[C@H]4CC[C@@H](C3)N4)nc(OC[C@@]34CCCN3C[C@H](F)C4)nc12` [Example 196, 4-((1R,5S)-3,8-diazabicyclo[3.2.1]octan-3-yl)-7-(5-chloro-1H-indazol-4-yl)-8-fluoro-2-(((2R,7aS)-2-fluorotetrahydro-1H-pyrrolizin-7a(5H)-yl)methoxy) quinazoline]: the half-inhibitory concentration (IC50) in experiment [1] worked out at 2.31 µM; in experiment [3] it was 0.037 µM; in experiment [4] it was 1.36 µM. The “Avg 2 h Coupled Exchange IC50” value in experiment [2] worked out at 0.02 µM.

In the case of `N#Cc1ccc2[nH]ncc2c1-c1ccc2c(N3C[C@H]4CC[C@@H](C3)N4)nc(OC[C@@]34CCCN3C[C@H](F)C4)nc2c1F` [Example 197, 4-(4-((1R,5S)-3,8-Diazabicyclo[3.2.1]octan-3-yl)-8-fluoro-2-(((2R,7aS)-2-fluorotetrahydro-1H-pyrrolizin-7a(5H)-yl)methoxy)quinazolin-7-yl)-1H-indazole-5-carbonitrile], the IC50 in experiment [1] was > 10 µM; in experiment [3], 0.108 µM; in experiment [4], 4.03 µM. The “Avg 2 h Coupled Exchange IC50” value in experiment [2] was 0.054 µM.

With `C=C(C)c1ccc2[nH]ncc2c1-c1ccc2c(N3C[C@H]4CC[C@@H](C3)N4)nc(OC[C@@]34CCCN3C[C@H](F)C4)nc2c1F` [Example 198, 4-((1R,5S)-3,8-Diazabicyclo[3.2.1]octan-3-yl)-8-fluoro-2-(((2R,7aS)-2-fluorotetrahydro-1H-pyrrolizin-7a(5H)-yl)methoxy)-7-(5-(prop-1-en-2-yl)-1H-indazol-4-yl)quinazoline], the half-inhibitory concentration (IC50) in experiment [1] was determined as 2.93 µM; in experiment [3], 0.042 µM; in experiment [4], 5.27 µM. The “Avg 2 h Coupled Exchange IC50” value in experiment [2] is 0.018 µM.

As for `CCc1c(F)ccc2cc(O)cc(-c3c(O)cc4c(N5C[C@H]6CC[C@@H](C5)N6)nc(OC[C@@]56CCCN5C[C@H](F)C6)nc4c3F)c12` [Example 199, 4-((1R,5S)-3,8-Diazabicyclo[3.2.1]octan-3-yl)-7-(8-ethyl-7-fluoro-3-hydroxynaphthalen-1-yl)-8-fluoro-2-(((2R,7aS)-2-fluorotetrahydro-1H-pyrrolizin-7a(5H)-yl)methoxy)quinazolin-6-ol], the IC50 came out at 0.07 µM in experiment [1], 0.003 µM in experiment [3] and 0.009 µM in experiment [4]. Also, the “Avg 2 h Coupled Exchange IC50” value in experiment [2] was 0.004 µM.

Regarding `CCc1c(F)ccc2cc(O)cc(-c3c(O)cc4c(N5[C@@H]6CC[C@H]5CNC6)nc(OC[C@@]56CCCN5C[C@H](F)C6)nc4c3F)c12` [Example 200, 4-((1R,5S)-3,8-diazabicyclo[3.2.1]octan-8-yl)-7-(8-ethyl-7-fluoro-3-hydroxynaphthalen-1-yl)-8-fluoro-2-(((2R,7aS)-2-fluorotetrahydro-1H-pyrrolizin-7a(5H)-yl)methoxy) quinazolin-6-ol], the results for the IC50 in experiment [1], in experiment [3] and in experiment [4] were 0.054 µM, 0.004 µM and 0.011 µM, respectively. Besides, in experiment [2], the “Avg 2 h Coupled Exchange IC50” value was found to be 0.004 µM.

In the case of `CCc1c(F)ccc2cc(O)cc(-c3cc4nc(OC[C@@]56CCCN5C[C@H](F)C6)nc(N5C[C@H]6CC[C@@H](C5)N6)c4cc3O)c12` [Example 201, 4-((1R,5S)-3,8-diazabicyclo[3.2.1]octan-3-yl)-7-(8-ethyl-7-fluoro-3-hydroxynaphthalen-1-yl)-2-(((2R,7aS)-2-fluorotetrahydro-1H-pyrrolizin-7a(5H)-yl)methoxy) quinazolin-6-ol], the values for the IC50 in experiment [1], in experiment [3] and in experiment [4] were 0.045 µM, 0.003 µM and 0.016 µM, respectively. For the same compound, the “Avg 2 h Coupled Exchange IC50” value in experiment [2] was 0.006 µM.

In the case of `CCc1c(F)ccc2cc(O)cc(-c3c(N)cc4c(N5C[C@H]6CC[C@@H](C5)N6)nc(OC[C@@]56CCCN5C[C@H](F)C6)nc4c3F)c12` [Example 202, 4-(6-Amino-4-((1R,5S)-3,8-diazabicyclo[3.2.1]octan-3-yl)-8-fluoro-2-(((2R,7aS)-2-fluorotetrahydro-1H-pyrrolizin-7a(5H)-yl)methoxy)quinazolin-7-yl)-5-ethyl-6-fluoronaphthalen-2-ol], the IC50 in experiment [1] turned out to be 0.175 µM; in experiment [3], 0.004 µM; in experiment [4], 0.009 µM. In addition, the “Avg 2 h Coupled Exchange IC50” value in experiment [2] amounted to 0.004 µM.

For the origin of these results see patent publication US20250059205A1, “Heterocyclic Compounds and Methods of Use” (AMGEN INC., priority 2021, published 2025).
